Data published in patent publication US10426718B2, “Compositions and methods for treating hair loss and delaying aging of skin” (Phyto Tech Corp., priority 2012, dated 2019).

Experiments:
Format in all cases: in vivo, mouse
[1] = system: c57BL/6J mice; assay: topical toxicity / allergic reaction test, Vaseline mixed with DHM on shaved skin; conditions: Vaseline mixed with 1 g DHM, six weeks
Excerpt: To determine whether topical application of DHM is toxic or causes allergic reaction, Vaseline mixed with 1 g DHM was applied to the shaved skin of c57BL/6J mice for six weeks.

[2] = system: chronically stressed C57BL/6J mice; assay: treatment of stress-induced hair loss (restraint-stressed mice), hair regrowth; conditions: 1 μM DHM in 1 oz. Vaseline, topical once per day for six weeks, vs Vaseline alone
Description: (§1) The effectiveness of DHM in the treatment of stress-induced hair loss was tested using two groups of eight week old C57BL/6J mice. Chronic stress was induced in the first group (n=20) by restraining each mouse in the test group for 3 hours per day for 21 consecutive days in a modified 50 ml clear polystyrene conical centrifuge tube with multiple air holes for ventilation. The second group of mice (n=10) remained undisturbed in their home cages (Fernandex-Vozmediano et al. (1994) “Contact dermatitis due to topical spironolactone.” Contact Dermatitis 30: 118-9; Tresch, et al. (2011) “T cell-mediated acute localized exanthematous pustulosis caused by finasteride.” J Allergy Clin Immunol 129: 589-94). The completion of the 21 day stress-induction cycle was followed by a two day withdrawal. […] The rodents' stress levels were also assessed via elevated plus maze (EPM) and open field test (OFT). […] Within the context of EPM, anxiety-related behavior was measured by the degree to which a mouse avoided the unenclosed arms of the maze. […] In OFT, each mouse was placed on an empty table surrounded by walls, and the mouse's movements and the time it spent moving were monitored. Within the context of OFT, anxiety-related behavior was measured by the degree to which a mouse avoided the open center and stayed close to the walls. […]

[3] = system: chronically stressed C57BL/6J mice; assay: elevated plus maze (EPM) behavioral anxiety test in chronically stressed mice; conditions: for behavioral anxiety (EPM and OFT together): 1 μM DHM, daily topical treatment for 6 weeks, chronically stressed mice
Description: The effectiveness of DHM in the treatment of stress-induced hair loss was tested using two groups of eight week old C57BL/6J mice. Chronic stress was induced in the first group (n=20) by restraining each mouse in the test group for 3 hours per day for 21 consecutive days in a modified 50 ml clear polystyrene conical centrifuge tube with multiple air holes for ventilation. The second group of mice (n=10) remained undisturbed in their home cages (Fernandex-Vozmediano et al. (1994) “Contact dermatitis due to topical spironolactone.” Contact Dermatitis 30: 118-9; Tresch, et al. (2011) “T cell-mediated acute localized exanthematous pustulosis caused by finasteride.” J Allergy Clin Immunol 129: 589-94). The completion of the 21 day stress-induction cycle was followed by a two day withdrawal. […] The rodents' stress levels were also assessed via elevated plus maze (EPM) and open field test (OFT). EPM and OFT are behavioral tests that are commonly used to assess anxiety by measuring a mouse's locomotor activity and willingness to explore. When anxious, rodents naturally prefer enclosed dark spaces to opened brightly lit spaces. In the EPM test, individual mice from each group were placed on a plus-shaped apparatus that was raised from the floor and had two open and two enclosed arms. Within the context of EPM, anxiety-related behavior was measured by the degree to which a mouse avoided the unenclosed arms of the maze. As shown in FIG. 2A and FIG. 2B, the unstressed mice explored the open arms, whereas the chronically stressed mice avoided the open arms and restricted their movements to the closed arms. In OFT, each mouse was placed on an empty table surrounded by walls, and the mouse's movements and the time it spent moving were monitored. Within the context of OFT, anxiety-related behavior was measured by the degree to which a mouse avoided the open center and stayed close to the walls. As shown in FIG. 2C and FIG. 2D, the unstressed mice explored center of the table, whereas the chronically stressed mice avoided the center and remained in the corners. […]

[4] = system: chronically stressed C57BL/6J mice; assay: open field test (OFT) behavioral anxiety test in chronically stressed mice; conditions: 1 μM DHM in Vaseline, topical once per day for six weeks
Description: as §1

[5] = system: C57BL/6J male mice; assay: induction of anagen on depilated dorsal skin; conditions: DHM 10% (w/w-%), 1 ml topical daily, day 8; vs vehicle control; similar to minoxidil 2%; P<0.05, N=10
Excerpt: (§2) A total of 40 seven-week-old, wild type C57BL/6J male mice were used for the study. The mice were housed individually (one mouse/cage). The mice were randomly assigned to one of four treatment groups that contained 10 mice per group. The treatment groups included a vehicle control, a positive control (minoxidil 2%), DHM 5% (w/w-%), and DHM 10% (w/w-%).
(§3) The vehicle used for all treatment groups was a mixture of alcohol denat., propanediol, water, ethylhexylglycerin, and phenoxyethanol. The DHM used in the DHM treatment groups has a purity of 98%.
(§4) The DHM 10% treatment contained the following percentage concentrations (w/w-%): 20% alcohol denat., 10% DHM, 50% propanediol, 19.5% water, and 0.5% ethylhexylglycerin and phenoxyethanol.
(§5) The hair of the dorsal skin (2×5 cm) from every mouse was removed by clipping and topical application of calcium thioglycolate to depilate the clipped area. The next day, mice without visible wounds were used for the study. The mice received a daily topical application of 1 ml of their respective treatment per day. Hair regrowth was quantified by analyzing photographs that were taken of each mouse every 4 days after topical treatment for a total of 21 days (day 0, 4, 8, 12, 16, and 21). For each mouse, an area of 3 cm^2 of the back was analyzed. All experiments were continued for 21 days. […]

[6] = system: C57BL/6J male mice; assay: hair regrowth on depilated dorsal skin; conditions: DHM 10% (w/w-%), 1 ml topical daily, day 12; vs vehicle control; similar to minoxidil 2%; P<0.05, N=10
Excerpt: as §2, §3, §4, §5

**Q.** With O=C1c2c(O)cc(O)cc2O[C@H](c2cc(O)c(O)c(O)c2)[C@H]1O [DHM, (2R,3R)-3,5,7-trihydroxy-2-(3,4,5-trihydroxyphenyl)-2,3-dihydrochromen-4-one] as the compound, how does the “changes in body weight” value [1] read?
**A.** did not exhibit any changes

**Q.** And the “changes in metabolic rate” value [1]?
**A.** did not exhibit any changes

**Q.** What about the “rash, redness, or other responses associated with an allergic reaction” value [1] of the same compound?
**A.** did not exhibit rash, redness, or other responses associated with an allergic reaction

**Q.** What about the “hair regrowth on bald spots” value [2] of the same compound?
**A.** hair regrowth was observed

**Q.** What about the “hair regrowth on bald spots” value ([2]; listed as dihydromyricetin) of the same compound?
**A.** regrowth of hair

**Q.** And the “willingness to explore the open arms of the EPM apparatus” value ([3]; 1 μM DHM in Vaseline, topical once per day for six weeks, compared with unstressed control mice)?
**A.** as willing to explore the open arms of the EPM apparatus as the unstressed control mice

**Q.** What about the “behavioral anxiety (EPM and OFT together)” value [3] of the same compound?
**A.** reversed

**Q.** What about the “behavioral anxiety (EPM and OFT together)” value ([3]; listed as dihydromyricetin) of the same compound?
**A.** behavioral anxiety was reduced

**Q.** And the “locomotor activity in OFT” value [4]?
**A.** significantly increased locomotor activity

**Q.** And the “running distance in OFT” value [4]?
**A.** longer running distance comparable to those of unstressed mice

**Q.** And the “induction of anagen (grading 0-3)” value [5]?
**A.** significantly different to treatment with the vehicle control

**Q.** And the “hair regrowth (grading 0-3)” value [6]?
**A.** statistically significant increase in hair regrowth
